Test results as given in publication PMC10067442, “In vivo quantitative high-throughput screening for drug discovery and comparative toxicology” (Disease Models & Mechanisms, 2023).
“Also recorded” adds a separate entry of the source. Structures can show the parent of a compound that is named as a salt. Where two headings read alike, the source gives them in different places. Residues, ends and D or L forms follow the SMILES beside them. *: point of attachment. Cbz = O=C(OCc1ccccc1)*

Tests used:
C. elegans strain PE254 [1] = assay: C. elegans LSC qHTS viability assay, Anti-Infectives library primary screen (BG-fed, 384-well); type: in vivo, Caenorhabditis elegans; conditions: for activity on C. elegans viability in primary qHTS (in words): seven-point titration; for EC50: Caenorhabditis elegans, Fig. 3D
Experimental: Levamisole, ivermectin and albendazole were purchased from Sigma-Aldrich. Stock solutions of all compounds were prepared at 10 mM in DMSO, and ivermectin was diluted to a 10 µM working dilution in DMSO. […] Of these, 284 (38%) are approved for clinical use in the United States, 32 (4%) were previously marketed for use in the United States, and 62 (8%) are used clinically outside of the United States. […] DMSO stock solutions of were arrayed in Echo-qualified 384-well cyclic olefin copolymer plates (Labcyte) in qHTS inter-plate dilution with seven concentrations, 1:5 dilution, resulting in a final concentration range of 2.5–20 mM high concentration titrated to 160 nM to 1.28 µM low concentration ([Yasgar et al., 2008]). ‘Assay-ready’ plates were prepared in 384-well uClear microtiter plates (Greiner BioOne), with compounds acoustically dispensed at 250 nl per well with an Echo 555 in the above inter-plate titration array. Two plates with DMSO added across the compound field at the same volume were prepared as screening controls (‘uniformity plates’). DMSO vehicle control was added to every well of column 1, and levamisole cytotoxicity control was added at a high concentration of 10 mM in wells 1–8 and titrated 1:3, starting at a high concentration of 10 mM to 4.57 µM in wells 9–16 of column 2 of every plate. Additionally, ivermectin, levamisol and albendazole were plated as internal controls on one assay plate in 16-point, 1:2 titration down six replicate columns per compound, starting at a high concentration of 10 µM (ivermectin) or 10 mM (levamisole and albendazole). Assay-ready plates were sealed and frozen at −80°C until use.
C. elegans strain PE254 were collected from 12 NGM plates as above, transferred to 250 ml S medium supplemented with OP50 E. coli pellet collected from 2 l overnight culture, and grown for 5 days at 21°C with vigorous shaking in an Incu-Shaker Mini Shaking Incubator (Benchmark Scientific, Inc.). Eggs were axenized as above and hatched overnight in M9 buffer at 21°C and shaken at 65 rpm. Assay ready plates were thawed and allowed to equilibrate to ambient temperature. BGs in S medium (30 µl/well) at an OD600=0.85 were manually added across plates with a Capp pipette. Synchronized L1 worms from above were collected, diluted and plated at ten worms/30 µl/well with a Capp pipette into assay-ready microtiter plates pre-plated with BGs and compounds (240-fold dilution). […] No ethical approval or guidance is needed for working with nematodes.
Data from the Anti-Infectives screen were normalized by plate to corresponding intra-plate controls as previously described ([Inglese et al., 2006]). Assay statistics were calculated using the same respective controls. Total object ‘GFP’ area (µm^2) and number of worms were normalized to the average signal of DMSO-treated wells as zero percent neutral control, and the average signal of 41.7 µM levamisole-treated wells as −100% activity. In-house software was used to fit the resulting inter-plate titration data to the standard Hill equation, and concentration–response curves were classified by activity as previously described ([Southall et al., 2009]). Curve fits assignments of −1.1, −1.2, −2.1, −2.2 and −3 were considered active and visually confirmed.

C. elegans strain PE254 [2] = assay: Life-stage distribution analysis by COPAS flow cytometry after 7-day treatment; type: in vivo, Caenorhabditis elegans; conditions: 7-day treatment at ∼EC75-80, mixed population of 2000 worms/well
Experimental: After 7 days of compound treatment in six-well culture plates seeded with a mixed population of 2000 C. elegans strain PE254, a life-stage distribution analysis was determined by TOF and EC using the COPAS FP BioSorter, followed by bulk collection in a 50 ml conical tube for use in proteomics studies.

[3] = read-out: qHTS potency based on GFP area
[4] = read-out: qHTS potency based on worm number

SMILES	activity on C. elegans viability in primary qHTS (in words) (C. elegans strain PE254 [1]; GFP area)	also measured
Cc1sc2c(c1C)C(c1ccc(Cl)cc1)=N[C@@H](CC(=O)Nc1ccc(O)cc1)c1nnc(C)n1-2 [OTX-015]	inactive	
O=C(C1CCCCC1)N1CC(=O)N2CCc3ccccc3C2C1 (stereo not drawn) [Praziquantel]	not detected; also recorded: not identified as active	effect on life stage viability (in words) (C. elegans strain PE254 [2]): no effect; curve classification (CC) (C. elegans strain PE254 [1]; GFP area, day 7): 4
CCNC(=O)C[C@@H]1N=C(c2ccc(Cl)cc2)c2cc(OC)ccc2-n2c(C)nnc21 [I-BET762]	Active	
Cc1sc2c(c1C)C(c1ccc(Cl)cc1)=N[C@@H](CC(=O)OC(C)(C)C)c1nnc(C)n1-2 [JQ1]	Active	
Cc1cc(/C=C/c2ccc3cc(N(C)C)ccc3[n+]2C)c(C)n1-c1ccccc1 [Pyrvinium pamoate]	active	
CC(C)C[C@H](NC(=O)CNC(=O)c1cc(Cl)ccc1Cl)B(O)O [Ixazomib]		EC50 (C. elegans strain PE254 [1]; [3]): 1130 nM; EC50 (C. elegans strain PE254 [1]; [4]): 863 nM
COc1cc2c(cc1-c1c(C)noc1C)ncc1[nH]c(=O)n([C@H](C)c3ccccn3)c12 [I-BET151]	inactive	
O=C(NO)c1cccc(C(=O)NCCc2ccccc2)c1 [BRD73954]	inactive	
CC(C)C[C@H](NC(=O)[C@H](CCc1ccccc1)NC(=O)CN1CCOCC1)C(=O)N[C@@H](Cc1ccccc1)C(=O)N[C@@H](CC(C)C)C(=O)[C@@]1(C)CO1 [Carfilzomib]	Inactive	
O=[N+]([O-])c1ccc(S(=O)(=O)N2CCN(c3ccnc4cc(Cl)ccc34)CC2)c([N+](=O)[O-])c1 [VR23]	Inactive	
Cc1noc2c1-c1ccccc1C(c1ccc(Cl)cc1)=N[C@H]2CC(N)=O [CPI-0610]	Active	
CCCC[C@@H](C=O)NC(=O)[C@H](CC(C)C)NC(=O)OCc1ccccc1 [Calpeptin]	Inactive	
CC(C)C[C@H](NC(=O)[C@@H](NC(=O)c1cccc(-c2ccccc2)n1)[C@@H](C)O)B(O)O [Delanzomib]		EC50 (C. elegans strain PE254 [1]; [3]): 405 nM; EC50 (C. elegans strain PE254 [1]; [4]): 311 nM
CC(=O)N1c2ccc(-c3ccc(C(=O)O)cc3)cc2[C@H](Nc2ccc(Cl)cc2)C[C@@H]1C [GSK1324726A]	Active	
CC(C)C[C@@H](C=O)NC(=O)[C@H](CC(C)C)NC(=O)[C@H](CC(C)C)NC(=O)OCc1ccccc1 [MG-132] (Cbz-Leu-Leu-Leu-aldehyde)	Inactive	effect on life stage viability (in words) (C. elegans strain PE254 [2]): no discernable effect
CC(C)C[C@H](NC(=O)CNC(=O)c1cc(Cl)ccc1Cl)B1OC(=O)C(CC(=O)O)(CC(=O)O)O1 [Ixazomib citrate]		EC50 (C. elegans strain PE254 [1]; [3]): 411 nM; EC50 (C. elegans strain PE254 [1]; [4]): 382 nM
COC[C@H](NC(=O)c1cnc(C)s1)C(=O)N[C@@H](COC)C(=O)N[C@@H](Cc1ccccc1)C(=O)[C@@]1(C)CO1 [Oprozomib]	Inactive	
Cn1cnc2c(F)c(Nc3ccc(Br)cc3Cl)c(C(=O)NOCCO)cc21 [Selumetinib]		effect on life stage viability (in words) (C. elegans strain PE254 [2]): no discernable effect; effect on life stage viability (in words) (C. elegans strain PE254 [2]; listed as 10): inactive
C=CC(=O)N1C/C(=C\c2ccc([N+](=O)[O-])cc2)C(=O)/C(=C/c2ccc([N+](=O)[O-])cc2)C1 [b-AP15]	Inactive	
CC[C@H](C)[C@H](NC(=O)[C@H]([C@@H](C)CC)N(C)C(C)=O)C(=O)N[C@H](C(=O)N[C@@H](CC(C)C)C(=O)[C@@]1(C)CO1)[C@@H](C)O [Epoxomicin]	Inactive	
CC(=O)Nc1cccc(-n2c(=O)n(C3CC3)c(=O)c3c(Nc4ccc(I)cc4F)n(C)c(=O)c(C)c32)c1 [Trametinib]		effect on life stage viability (in words) (C. elegans strain PE254 [2]): potent larval-stage depletion; effect on life stage viability (in words) (C. elegans strain PE254 [2]; listed as 9): affecting life-stage progression or number
C[C@H](NC(=O)[C@@H](O)c1cc(F)cc(F)c1)C(=O)N[C@@H]1C(=O)N(C)c2ccccc2-c2ccccc21 [LY-411575]		effect on life stage viability (in words) (C. elegans strain PE254 [2]): affecting life-stage progression or number
